We go through 1 molecule from patent publication US7091040B1, “P450/acetaminophen genetically directed enzyme prodrug therapy (GDEPT)” (Innovata PLC, priority 1999, dated 2006).

For data set [1], the system named is H1A2 MZ cells. In words: Viability of H1A2 MZ cells (stably transfected with human CYP1A2) incubated with acetaminophen, trypan blue exclusion. The following applies: H1A2 MZ cells; 0.1 mM acetaminophen; 6 h. On the procedure: (§1) For cell viability experiments 200,000 cells per well were plated on 12 well plates (Beckton-Dickenson, Oxford, UK), using the medium and conditions required by the tumour cell line and allowed to adhere overnight. After this the cells were washed with PBS before the addition of acetaminophen in 0.1 ml PBS (concentrations of 0.1–20 mM acetaminophen were dissolved in PBS by sonication) and then maintained at 37° C. At the appropriate time points, cells were removed from the plates by trypsinisation and collected by centrifugation. Cell viability was measured as ability to exclude trypan blue. Cells were counted at ×100 magnification using an Improved Neubauer haemocytometer; all cell counts are the mean of duplicate determinations of five fields from duplicate experiments.
(§2) V79 MZ Chinese hamster cells were maintained in Dulbecco-Vogt's modified Eagle's Medium (DMEM) supplemented with 10% foetal calf serum 9FCS), 2 mM L-glutamine, penicillin (100 U/ml and streptomycin (100 μg/ml) (all tissue culture reagents were obtained from Gibco BRL, Paisley, UK). H1A2 MZ cells, which are V79 MZ cells transfected with the human CYP1A2 gene, were also maintained in supplemented DMEM with the addition of geneticin at a concentration of 4 mg/ml. SK-OV-3 cells were grown in DMEM supplemented with 15% FCS and 2 mM L-glutamine, without the addition of antibiotics. RPMI-1640 medium with 10% FCS, 2 mM L-glutamine, penicillin (100 U/ml) and streptomycin ([…]) was required by the HCT116 cells. These cell lines were maintained at 37° C. with 100% humidity and 5% CO2. […] At confluence cells were removed from tissue culture flasks by inubation with trypsin-EDTA for 5 min, diluted 1:3–1:6 in fresh medium and seeded onto fresh flasks. The tumour cell lines were obtained from the European Collection of Cell Cultures.

Assay in data set [2]: as above
To be noted: Chinese hamster. Here is the method: as §1, §2

In data set [3] the test system is V79 MZ cells. In words: Viability of V79 MZ cells, alone or co-cultured with H1A2 MZ cells (bystander effect), with acetaminophen, trypan blue exclusion. In kind it is cell-based, Chinese hamster. On the procedure:
(§3) Table 1 represents the bystander effect on viability produced by incubating H1A2 MZ cells (stably transfected with human CYP1A2) with various cell-lines in the presence of acetaminophen. Tumour cells or V79 MZ cells (non transfected, parental cells) were co-cultured overnight with various mixtures of H1A2 MZ cells (as indicated in the Table), […] the cells were then washed once with PBS and maintained for either 24 or 48 h in culture medium appropriate to each cell type, as detailed in the Methods section. At 0, 6, 24 or 48 h the cells were washed in PBS and viability of the mixed cell population determined by trypan blue exclusion. The data shown are mean values±SEM of 4 separate determinations. Statistical significance was determined at each time point by comparing viability measurements in the mixed cell populations with both the viability determined at 0 h and in the absence of H1A2 MZ cells in the mixture 2×2 contingency tables using the 2-tailed Chi-squared test with Yate's correction. Viability was determined in a total of 1500 cells at each time point. Levels of significance are indicated as **p<0.001; ***p<0.0001;
(§4) FIG. 4 represents the bystander effect on viability produced by incubating stably transfected, acetaminophen-activating H1A2 MZ cells with non-transfected parental V79 MZ cells. […] The cells were then washed in PBS and the viability of the mixed cell population determined by trypan blue exclusion. The cultures comprised V79 MZ cells only (open squares), and V79 MZ cells mixed with 5% (solid squares), 10% (open triangles), 25% (open circles) and 50% (solid circles) H1A2 MZ cells. In addition, the viability of H1A2 MZ cells in the presence (crosses) and absence (solid triangles) of acetaminophen is shown.

Assay in data set [4]: as above
The class given is cell-based, Chinese hamster. To be noted: Chinese hamster; for viability at 4 mM: 4 mM acetaminophen 6 h, then 24 h in culture medium; for viability at 0 h, 4 mM / viability at 6 h, 4 mM: 4 mM acetaminophen in PBS. On the procedure:
as §3, §4

[5] abbreviates: V79 MZ cells + 5% H1A2 MZ cells.
[6] abbreviates: V79 MZ cells + 10% H1A2 MZ cells.
Setting [7] is: V79 MZ cells + 25% H1A2 MZ cells.
[8] abbreviates: V79 MZ cells + 50% H1A2 MZ cells.

On to `CC(=O)Nc1ccc(O)cc1` [acetaminophen], for which the cytotoxicity result in data set [1] is reported as “No cytotoxicity”. The viability – broadly, a read-out of living cells in per cent, often relative to untreated cells – at 6 h, 1 mM in data set [2] was 62%. For the same molecule, the viability at 6 h, 4 mM worked out at 8% in data set [2]; 52% in data set [4] (setting [5]); 39 ± 6% in data set [4] (setting [6]); 20 ± 4% in data set [4] (setting [7]); 15 ± 7% in data set [4] (setting [8]); 94 ± 7% in data set [4] (V79 MZ cells, 0% H1A2 MZ cells). Moreover, the “Viability (%)” value in data set [3] (V79 MZ cells + 5% H1A2 MZ cells, 4 mM acetaminophen 6 h, then 24 h in culture medium) is on record as “zero”; in data set [3] (V79 MZ cells, 0% H1A2 MZ cells, 4 mM acetaminophen in PBS, 6 h), “no decline in cell viability”. Besides, in data set [3] (V79 MZ cells, which lack CYP1A2, acetaminophen 0.1–20 mM, 6 h), the cell viability entry is recorded as “no loss of cell viability”. Besides, the viability at 4 mM in data set [4] (setting [5]) was 0%; in data set [4] (setting [6]), 0%; in data set [4] (setting [7]), 0%; in data set [4] (setting [8]) it was 0%; in data set [4] (V79 MZ cells, 0% H1A2 MZ cells), 98 ± 1%. For the same molecule, the viability at 0 h, 4 mM in data set [4] (setting [5]) worked out at 98 ± 1%; in data set [4] (setting [6]), 98 ± 1%; in data set [4] (setting [7]), 97 ± 2%; in data set [4] (setting [8]) it was 96 ± 3%; in data set [4] (V79 MZ cells, 0% H1A2 MZ cells), 99 ± 1%.
